# Results reported in US6812034B2, “Fetuin-MGP-mineral complex in serum assayed to determine calcification risk” (The Regents of the University of California, priority 2000, dated 2004).
# Columns and labels:
# [1] = system: vitamin D-induced artery calcification; assay: mineral phosphate accumulation in acid demineralization extracts of thoracic aorta and carotid arteries, vitamin D plus warfarin; assay type: in vivo, rat
# Description: Tissues were subsequently washed extensively with buffer and extracted with 1 ml of 10% formic acid for 24 h at room temperature, as described. Calcium levels in serum were determined colorimetrically using cresolphthalein complexone (Sigma) and phosphate levels in serum and in acid tissue extracts were determined calorimetrically as described (Zhu et al. (1994) Cardiology, 85: 370-377). Tissue sectioning and staining were carried out by Biomedical Testing Services, Inc., (San Diego, Calif.). The effect of bisphosphonates on artery calcification was first examined in rats in which artery calcification was induced by treatment with warfarin plus high doses of vitamin D. […] All animals were killed by exsanguination at 96 h. […] All animals were killed by exsanguination at 96 h after the first vitamin D dose. […] All animals were killed by exsanguination 96 h after the first vitamin D injection.
# [2] = serum levels of calcium, phosphate, MGP and BGP after subcutaneous bisphosphonate; assay type: in vivo, rat; settings: for Ionic calcium / total calcium: 8 mg/100 g
# Description: Rats were fed rodent diet 5001 (Purina Mills Inc., St. […] Etidronate was dissolved with 0.15 M NaCl, titrated to pH 7.4 with dilute NaOH, and administered subcutaneously to forty-day-old male rats. Control animals received injections of 0.15 M NaCl only. […] At the times indicated in FIG. 1, each rat was anesthetized with metofane and a 400 μl sample of blood was withdrawn from the jugular vein. Blood samples were allowed to clot for 15 min at room temperature and serum was obtained after centrifugation in a clinical centrifuge and then frozen rapidly on dry ice and stored at -70° C. until later analysis. The same procedure was followed for the second time course experiment (FIG. 10), with the difference that the etidronate dose was increased to 32 mg per 100 g body weight. […] Two hours later, all rats were injected with etidronate at a dose of 8 mg/100 g (t=0), and 400 μl of blood were removed from each animal at the indicated times for biochemical analyses. […] In neither control group could we detect a significant change in serum levels of calcium, phosphate, or MGP at any time point. […] Rice et al. (1994) J. Bone Min. Res. 9: 567-576). Calcium levels in serum and other samples were determined colorimetrically using cresolphthalein complexone (Sigma) and phosphate levels in serum, effluent fractions, and other samples were determined calorimetrically as described (Chen et al. (1956) Anal. Chem. 28(11): 1756-1758). For determination of ionic calcium, freshly obtained blood samples were immediately placed into a 2.5 ml gold top vacutainer tube to avoid out gassing of CO2 and the associated shift in pH. […] Electrophoresis was carried out using 4 to 20% polyacrylamide gels (Novex, Inc., San Diego, Calif.) run in Tris-glycine buffer containing SDS. Protein sequencing was carried out on bands transferred to PVDF membranes using a Procise 494 Sequencer (ABI division, PE Biosystems, Foster City, Calif.).
structure (smiles),measurement,setting,value
"CC(O)(P(=O)(O)O)P(=O)(O)O [Etidronate, (1-hydroxyethylylidene)-bisphosphonate]",dose required to reduce the extent of mineralization by half in the thoracic aorta,"[1]; 84 h, FIG. 3",2 mg P/kg/day
same,dose required to reduce the extent of mineralization by half in the carotid artery,"[1]; 84 h, FIG. 4",2 mg P/kg/day
same,Artery Calcification Dose for 50% inhibition,"[1]; daily subcutaneous dose, vitamin D-induced artery calcification, male rats initially 200 g",2 mg P/kg/day
same,Artery Calcification Relative potency,[1]; relative to etidronate = 1,1
same,"increase in serum calcium, phosphate and MGP compared with the 8 mg/100 g dose","[2]; 4 mg/100 g body weight, 6 h, data not shown",smaller increase
same,elevation of serum calcium,[2]; 8 mg/100 g body weight sc,1.8 fold
same,elevation of serum phosphate,[2]; 8 mg/100 g body weight sc,1.6 fold
same,serum MGP,[2]; 8 mg/100 g body weight sc,12 µg/mL
same,serum calcium,[2]; 8 mg/100 g body weight sc,4.3 mM
same,serum phosphate,[2]; 8 mg/100 g body weight sc,5.6 mM
same,time at which serum mineral complex reaches maximal levels,[2]; 8 mg/100 g sc,6 h
same,time by which serum mineral complex is cleared from serum,[2]; 8 mg/100 g sc,≤ 24 h
same,time of peak level of MGP,[2]; 8 mg/100 g sc,6 h
same,time of peak serum BGP level,[2]; 8 mg/100 g sc,1 h
same,time to half of maximal serum MGP levels,[2]; 8 mg/100 g sc,3 h
same,time to half of maximal serum calcium and phosphate levels,[2]; 8 mg/100 g sc,1 h
same,phosphate above control levels,"[2]; 8 mg/100 g sc, by 6 h",59%
same,total calcium above control levels,"[2]; 8 mg/100 g sc, by 6 h",76%
same,maximum elevation of serum BGP,"[2]; 8 mg/100 g sc, data not shown",3 fold
same,Ionic calcium,[2]; 1 h,1.47 ± 0.04 mM
same,total calcium,[2]; 1 h,3.45 ± 0.34 mM
same,Ionic calcium,[2]; 2 h,1.51 ± 0.04 mM
same,total calcium,[2]; 2 h,4.05 ± 0.44 mM
same,Ionic calcium,[2]; 6 h,1.46 ± 0.03 mM
same,total calcium,[2]; 6 h,4.41 ± 0.43 mM
same,"time of maximal level in serum total calcium, phosphate and MGP",[2]; 32 mg/100 g sc,6 to 9 h
same,level of serum ionized calcium,"[2]; 32 mg/100 g sc, 6 h",no increase
same,"serum levels of total calcium, phosphate and MGP","[2]; 32 mg/100 g sc, 24 h",remained substantially elevated
same,increase in serum MGP levels,"[2]; 32 mg/100 g, within 6 h",36 fold
same,increase in serum phosphate levels,"[2]; 32 mg/100 g, within 6 h",2.5 fold
same,serum MGP,"[2]; 32 mg/100 g, within 6 h",18 µg/mL
same,serum phosphate,"[2]; 32 mg/100 g, within 6 h",8.6 mM
same,total serum calcium,"[2]; 32 mg/100 g, within 6 h",8.8 mM
